Test results taken from ChEMBL document CHEMBL1201862, “PubChem BioAssay data set” (2004).
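48-hour exposure; five concentrations; linearly interpolated endpoints. GI50 = concentration required for 50% inhibition of growth.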 Activity calls are given as the source filed them. No stated cut-off is given here; in the data, active = GI50 up to about 1.1 µM and inactive = higher.

Columns and labels:
Assay in all cases: DTP human tumour cell line panel, 48 h
CAKI-1 = tested on: CAKI-1
EKVX = tested on: EKVX
HCC 2998 = tested on: HCC 2998
HCT-116 = tested on: HCT-116
HL-60 = tested on: HL-60
HOP-62 = tested on: HOP-62
MOLT-4 = tested on: MOLT-4
NCI-H226 = tested on: NCI-H226
NCI-H522 = tested on: NCI-H522
SF-268 = tested on: SF-268
SK-MEL-5 = tested on: SK-MEL-5
SK-OV-3 = tested on: SK-OV-3
SR = tested on: SR
UACC-257 = tested on: UACC-257
ACHN = tested on: ACHN
HCT-15 = tested on: HCT-15
RXF 393 = tested on: RXF 393

Compound | GI50 (CAKI-1) | GI50 (EKVX) | GI50 (HCC 2998) | GI50 (HCT-116) | GI50 (HL-60) | GI50 (HOP-62) | GI50 (MOLT-4) | GI50 (NCI-H226) | GI50 (NCI-H522) | GI50 (SF-268) | GI50 (SK-MEL-5) | GI50 (SK-OV-3) | GI50 (SR) | GI50 (UACC-257) | GI50 (ACHN) | GI50 (HCT-15) [µM] | GI50 (RXF 393)
CCCCCCCCCCCCCCCCCC(=O)NCC(COP(=O)(O)O)OCC (stereo not given) | 31.2 µM (inactive) | 46.3 µM (inactive) | > 100 µM (inactive) | 58.6 µM (inactive) | > 100 µM (inactive) | 22 µM (inactive) | > 100 µM (inactive) | 27.7 µM (inactive) | 29.7 µM (inactive) | 22.3 µM (inactive) | > 100 µM (inactive) | 34.9 µM (inactive) | > 100 µM (inactive) | > 100 µM (inactive) | – | – | –
COc1ccc(/C=C/C(=O)c2sc(Nc3ccc([N+](=O)[O-])cc3)nc2C)cc1 | 40.2 µM (inactive) | 43.9 µM (inactive) | 27.5 µM (inactive) | – | 21.2 µM (inactive) | 64.1 µM (inactive) | 17.7 µM (inactive) | – | 18.2 µM (inactive) | 34.8 µM (inactive) | 18.2 µM (inactive) | > 100 µM (inactive) | – | – | 38.6 µM (inactive) | 34.4 | 23.1 µM (inactive)
Cn1c(CBr)nc2c1C(=O)c1nc(CBr)[nH]c(=O)c1C2=O | > 100 µM (inactive) | > 100 µM (inactive) | – | > 100 µM (inactive) | – | – | > 100 µM (inactive) | – | > 100 µM (inactive) | > 100 µM (inactive) | > 100 µM (inactive) | > 100 µM (inactive) | – | – | > 100 µM (inactive) | > 100 | > 100 µM (inactive)
C#CCN(N=O)C(=O)NCCCC(NC(C)=O)C(=O)NCc1ccccc1 (stereo not given) | 54.6 µM (inactive) | > 100 µM (inactive) | > 100 µM (inactive) | 73.6 µM (inactive) | – | > 100 µM (inactive) | 15.3 µM (inactive) | > 100 µM (inactive) | 29.9 µM (inactive) | > 100 µM (inactive) | > 100 µM (inactive) | > 100 µM (inactive) | 6.3 µM (inactive) | > 100 µM (inactive) | 56.2 µM (inactive) | > 100 | > 100 µM (inactive)
CN1/C(=C/C(=O)c2ccc(Cl)cc2)Nc2ccccc21 | 20 µM (inactive) | 23.1 µM (inactive) | 56 µM (inactive) | 45.7 µM (inactive) | 25.1 µM (inactive) | – | 22.6 µM (inactive) | 13.6 µM (inactive) | 19.1 µM (inactive) | 43.9 µM (inactive) | 25.5 µM (inactive) | – | 32.2 µM (inactive) | 31.9 µM (inactive) | 33 µM (inactive) | 45.9 | > 100 µM (inactive)
N#C/C(=C1\SC(/N=N/c2ccc(Cl)cc2)C(=O)N1c1ccccc1)c1nc2ccccc2[nH]1 (stereo not given) | 48.4 µM (inactive) | 47.3 µM (inactive) | – | 46 µM (inactive) | 45.6 µM (inactive) | 19.8 µM (inactive) | – | 23.4 µM (inactive) | 23.8 µM (inactive) | > 100 µM (inactive) | 35 µM (inactive) | 15.5 µM (inactive) | – | 27.3 µM (inactive) | 25.5 µM (inactive) | 65.8 | 36.6 µM (inactive)
COc1ccc(N2C(=O)C3c4[nH]c5ccccc5c4C4CCCCCCCCCCC4C3C2=O)cc1 (stereo not given) | 35.4 µM (inactive) | 23.4 µM (inactive) | > 100 µM (inactive) | 5.25 µM (inactive) | 18.9 µM (inactive) | 20.3 µM (inactive) | 15 µM (inactive) | 6.93 µM (inactive) | 18 µM (inactive) | 5.16 µM (inactive) | 21.7 µM (inactive) | 28.8 µM (inactive) | 10.8 µM (inactive) | 31.6 µM (inactive) | 29.4 µM (inactive) | 5.52 | –
Cc1ccc(S(=O)(=O)NC(=O)C2S(=O)(=O)OCCOS2(=O)=O)cc1 | > 100 µM (inactive) | > 100 µM (inactive) | > 100 µM (inactive) | > 100 µM (inactive) | > 100 µM (inactive) | > 100 µM (inactive) | > 10 µM (inactive) | 1.24 µM (inactive) | > 100 µM (inactive) | > 100 µM (inactive) | > 100 µM (inactive) | > 100 µM (inactive) | > 100 µM (inactive) | > 100 µM (inactive) | – | – | –
CN(C)c1ccc(/C=c2\sc3nnc(-c4cccnc4)n3c2=O)cc1 | > 100 µM (inactive) | > 100 µM (inactive) | > 100 µM (inactive) | > 100 µM (inactive) | > 100 µM (inactive) | > 100 µM (inactive) | > 100 µM (inactive) | > 100 µM (inactive) | > 100 µM (inactive) | > 100 µM (inactive) | > 100 µM (inactive) | > 100 µM (inactive) | – | > 100 µM (inactive) | > 100 µM (inactive) | > 100 | > 100 µM (inactive)
CC(C)C(Sc1nc(-c2ccccc2)c(-c2ccccc2)[nH]1)c1n[nH]c(=S)n1-c1ccccc1 (stereo not given) | – | 26.2 µM (inactive) | 28.4 µM (inactive) | 41.6 µM (inactive) | 20.7 µM (inactive) | 44.6 µM (inactive) | 18 µM (inactive) | 37.7 µM (inactive) | 21 µM (inactive) | 29.4 µM (inactive) | 17.7 µM (inactive) | 40.3 µM (inactive) | 32.2 µM (inactive) | 31.7 µM (inactive) | 29.6 µM (inactive) | 50.5 | –
CSc1nc(NC2OCC(OC(C)=O)C(OC(C)=O)C2OC(C)=O)c(/N=C\C=N\c2c(NC3OCC(OC(C)=O)C(OC(C)=O)C3OC(C)=O)nc(SC)n(C)c2=O)c(=O)n1C (stereo not given) | – | > 100 µM (inactive) | > 100 µM (inactive) | > 100 µM (inactive) | > 100 µM (inactive) | > 100 µM (inactive) | – | – | > 100 µM (inactive) | > 100 µM (inactive) | > 100 µM (inactive) | > 100 µM (inactive) | > 100 µM (inactive) | > 100 µM (inactive) | > 100 µM (inactive) | > 100 | > 100 µM (inactive)
C=CC[P@@]1(=O)O[C@H](c2ccccc2)C(C)N1C(C)C (stereo not given in full) | – | > 100 µM (inactive) | > 100 µM (inactive) | – | > 100 µM (inactive) | – | > 100 µM (inactive) | > 100 µM (inactive) | – | > 100 µM (inactive) | > 100 µM (inactive) | > 100 µM (inactive) | > 100 µM (inactive) | – | > 100 µM (inactive) | > 100 | > 100 µM (inactive)
COc1cc(/C=C/c2ccc(OC(C)=O)cc2)cc(OC)c1OC | 27.9 µM (inactive) | 26.3 µM (inactive) | – | 26.9 µM (inactive) | 12.4 µM (inactive) | 45.7 µM (inactive) | 16.7 µM (inactive) | 35.8 µM (inactive) | 17.9 µM (inactive) | 32 µM (inactive) | 18.6 µM (inactive) | – | – | 33.4 µM (inactive) | 15.5 µM (inactive) | 27.8 | 11.1 µM (inactive)
COc1cc(/C=C\c2ccccc2)cc(OC)c1OC | 4.36 µM (inactive) | 6.01 µM (inactive) | 11.8 µM (inactive) | 4.78 µM (inactive) | 1.75 µM (inactive) | 2.9 µM (inactive) | 3.7 µM (inactive) | 4.2 µM (inactive) | 2.67 µM (inactive) | 6.55 µM (inactive) | 3.08 µM (inactive) | – | 3.71 µM (inactive) | 5.14 µM (inactive) | 6.98 µM (inactive) | 2.6 | 1.84 µM (inactive)
